From patent publication US10391112B2, “Cationic polymers as co-drugs for chemotherapeutic agents” (Northeastern University, priority 2015, dated 2019) come the findings set out here.

This data set has as its system MDA-MB-231. Put plainly: alamar-blue cell viability / cytotoxicity of PEI, doxorubicin and mixtures. It is filed as cell-based, human. As for the experimental part: All cells were maintained at 37° C. in a humidified incubator with 5% CO2. MDA-MB-231 growing in the DMEM medium were harvested by trypsin-EDTA, and an initial concentration of 1×106 and further dilutions were made and seeded into wells of a 96-well plate (100 μL for each well). The medium without cells was used as negative control, and the plate was incubated for 18 h to allow cell attachment. Then another 100 μL, medium with desirable concentration drug were added into the well. After 24 h and 48 h incubation, 22 μL of alamar-blue (0.5 mg per mL) was added to each well. The absorbance was measured after further 4 h incubation at 530 nm and 590 nm using PowerwaveXPS plate reader. The plate was also incubated for the following 24 hours to measure the maximum dye reduction. Percentage reduction of alamar-blue is typically calculated using equation (1):
[formula] where At, An and Ac are recorded absorbance of test wells for test group, negative control group and positive control group.
Referring to FIG. 2, the cell viability is shown as a function of the molecular weight of the cationic polymer. […] All cells were maintained at 37° C. in a humidified incubator with 5% CO2. MDA-MB-231, 4T1 and HUVECs, HCC-1806, Hs-587T, MCF-7 cells growing in the log phase of growth were harvested by trypsin-EDTA, and an initial concentration of 1×10^6 and further dilutions were made and seeded into wells of a 96-well plate (100 μL, for each well). The medium without cells was used as negative control, and the plate was incubated for 18 h to allow cell attachment. Then another 100 μL medium with desirable concentration drug were added into the well. After 24 h and 48 h incubation, 22 μL, of alamar-blue (0.5 mg per mL) was added to each well. The absorbance was measured after further 4 h incubation at 530 nm and 590 nm using Powerwave XPS plate reader. The plate was also incubated for the following 24 hours to measure the maximum dye reduction. Percentage reduction of alamar-blue is typically calculated using equation (1).
In general terms: Alamar Blue is a resazurin reagent that responds to reducing activity.

For the compound `COc1cccc2c1C(=O)c1c(O)c3c(c(O)c1C2=O)C[C@@](O)(C(=O)CO)C[C@@H]3O[C@H]1C[C@H](N)[C@H](O)[C@H](C)O1` [doxorubicin], the cell viability entry (FIG. 1, drug concentrations between 0 μM and 5 μM) was “approximately 70%”; the cell viability (FIG. 2, 0.3 to 0.6 μg doxorubicin per well, 0 μg of PEI) is given as 60-70%; the cell viability result (FIG. 3 line 304, doxorubicin less than 5 μM) is recorded as “about 70%”.
